Laboratory results as given in patent US12102063B2 (SYNEXIS LLC, priority 2017, dated 2024).
Read-outs that look alike come from different tables or passages of the source.

Experiments:
[1] = tested on: bacteria on commercial eggs
Experimental: For sampling, individual eggs are placed in Whirl-Pak bags containing 10 milliliters (ml) of tryptic soy broth and manually rubbed in bag for 1 minute each. The washed eggs are discarded. One (1) ml from each sample is transferred to a deep well plate in triplicate and 10 fold serial dilutions performed with tryptic soy broth to 10−^11 dilution. The deep well plates are incubated for 24 hours at 37° C. After incubation, 5 microliters (5 μl) of each well is stamped onto a 96-well plate containing either tryptic soy agar (TSA) or MacConkey (Macx) agar. TSA agar is a non-selective, general purpose media. Macx agar is a selective, differential culture media for Gram-negative enteric bacilli. The agar plates are incubated 24 hours at 37° C. and then scored for bacterial growth.
A similar experiment is performed under egg cooler conditions. […] In this experiment, 300 commercial eggs are placed in the cooler and twenty (20) eggs are sampled, four times over five (5) days at 0 hours, 24 hours, 72 hours, and 120 hours as described above.

[2] = tested on: C. difficile (endospores) ATCC 43598
broilers = tested on: broilers
Text: The chicks hatched according to the methods of Examples 2 and 3 are shipped to a broiler facility and raised to maturity. No additional changes to grow-out methods are made. A total of about 4 million eggs are set per month and the saleable chicks are sent to the grow-out facility. […] The wholesale price of a broiler is currently estimated at $0.85 per pound. […] See the nationalchickencouncil.org available on the web.

E. coli K12 = conditions: for Log10 reduction / Log10 reduction vs. Control: DHP (+)
bacteria = conditions: end of test period (30 days), three locations
Experimental: In addition, bacterial contamination in the egg room is assessed by placing blood agar plates at three locations in the room (East, North, and West) at 0, 7, and 30 days, and bacterial growth is assessed after 24 hours.

[3] = tested on: A. brasiliensis ATCC 16404
Experimental: 24 and 48 hour test cultures of S. aureus, as well as all A. brasiliensis and C. difficile are prepared with 0.1% Triton X-100. A 6 hour test culture of S. aureus is prepared with 5.0% Petal Bovine Serum and no Triton. Carriers (slides) are inoculated, in duplicate per test microorganism per condition, at a target concentration of 1×10^6 CPU/Carrier. Inoculated carriers are allowed to dry at ambient temperatures, and are then placed in respective conditions to endure contact times. Carriers for S. aureus endured contact times of 6, 24, and 48 hours. Carriers for A. brasiliensis endured contact times of 12, 24, and 48 hours. […] After respective contact times, carriers are harvested in 10.0 mL of D/E Broth, vortex mixed, diluted, and plated on the appropriate growth media for each microorganism. Environmental conditions are monitored using the Drager Rohrchen, and Drager Polytron methods described in Example 1. (Note: The limit of detection for this assay is 5.0 CPU. Samples with no detectable colonies are listed as <5.00E+OO in the table).

Total bacteria = conditions: hatchery after DHP treatment
Text: (§1) Hatcheries and chick production facilities are subject to heavy bacterial loads that are difficult to control. In addition to the animals themselves, there is a significant contamination of the facilities from the outside.

Other blue green = conditions: hatchery after DHP treatment
Text: as §1

chicks = tested on: chicks
Experimental: Hatching eggs are obtained from a breeder farm and the eggs are subjected to standard egg cleaning and preparation procedures. Hatched chicks are collected and prepared according to standard procedures (separation of eggshells and unhatched eggs, counted, etc.). Chicks are graded according to established methods. See van de Ven et al., “Significance of chick quality score in broiler production,” Animal 6(10):1677-1683; Boerjan, “Programs for single stage incubation and chick quality,” Avian Poultry Biology Reviews 13:237-238 (2002); Tona et al, “Effects of egg storage time on spread of hatch, chick quality and chick juvenile growth,” Poultry Science 82:736-741 (2003).
As indicated, certain studies were performed at Western Hatchery in Abbotsford, British Columbia, Canada (“Western”), under the supervision of the inventors and assignee. Approximately 4 million eggs per month are processed through the hatchery.
The egg room is contiguous to the loading and receiving area of the facility and is exposed to the outside during deliveries for up to 2 to 3 hours daily. […] In addition to the incoming eggs, the egg room includes excess shipping boxes and pallets.
In June 2016, the egg room and facilities are modified to add a vestibule to the loading dock with plastic curtains and upgrading the HVAC system to provide a third supply duct. […] The use of the egg room is further modified to remove unnecessary equipment including, but not limited to, pallets, cardboard boxes, and crates.
Setter incubators are set to industry standard conditions: temperature between 37° C. and 38° C. and relative humidity between 40% and 70%.
FIG. 6 presents the percent hatching of first quality chicks.

[4] = tested on: MS2 Bacteriophage ATCC 15597-B1
Influenza A (H1N1) = tested on: Influenza A (H1N1)
Experimental: Glass slides (1″×3″) are ethanol-sanitized and autoclaved prior to testing. The slides (carriers) are placed into sterile plastic petri dishes until use. Aliquots (0.010 ml) of diluted stock Influenza A (H1N1) are aseptically spread over a 1″×1″ square area of the carrier slide to prepare a virus film.
Virus Control carriers are placed into an adjacent modular room with the lids removed. One additional glass slide (with no virus film) is also placed into each testing chamber to perform cytotoxicity and neutralization validation controls. Upon closure of the respective study contact times (T=60 min and T=120 min), duplicate carriers are removed from each testing chamber. Duplicate carriers are also removed from the control modular room at each time point. Duplicate time zero carriers are harvested and enumerated promptly by eluting the films with 2 ml of influenza Infection Medium. Serial dilutions (1:10) are performed and dilutions 10−^1 to 10−^5 are plated in quadruplicate onto Madin-Darby Canine Kidney (MDCK) cell monolayers prepared to suitable confluency. Cell culture assay trays are incubated at 35° C. on an orbital rotator (60 rotations/minute) for 60 minutes to facilitate viral-host adsorption. Trays are removed from incubation, and Influenza infection Media is pipetted into each well (−1.0 ml). The trays are incubated for 7 days. The assay trays are observed regularly for the presence of cytotoxicity, viral cytopathic effects, and contamination. At the end of 7 days, plates are scored and the Spearman-Karber Method is used to compute viral titers and levels of cytotoxicity.

Aspergillus fumigatus = conditions: hatchery after DHP treatment
[5] = second contact time (48 hours), Hood (Treated)
[6] = second contact time (48 hours), Room (Treated)
[7] = Modular Room, 120 minutes contact

OO [DHP, dry hydrogen peroxide]
growth on Mac, treated group ([1]; 72 hours compared to 0 hours, p=0.001): significantly less growth | growth on Mac, treated group ([1]; 120 hours compared to 0 hours, p=0.0001): significantly more growth | growth on Mac, treated group ([1]; 120 hours compared to 0 hours, p=0.05): significantly less growth | Mac growth with treatment ([1]; egg cooler, 0-120 hours): low throughout | TSA growth with treatment ([1]; egg cooler, 0-120 hours): static until 120 hours | Average CFU/Carrier ([2]; 24 Hours, Hood (Treated)): 2.75E+06 CFU/Carrier | Log Reduction compared to Control ([2]; 24 Hours, Hood (Treated)): None | Percent Reduction compared to Control ([2]; 24 Hours, Hood (Treated)): None | Average CFU/Carrier ([2]; 24 Hours, Room (Treated)): 1.53E+06 CFU/Carrier | Log Reduction compared to Control ([2]; 24 Hours, Room (Treated)): 0.07 Log | Percent Reduction compared to Control ([2]; 24 Hours, Room (Treated)): 13.96% | Average CFU/Carrier ([2]; 72 Hours, Hood (Treated)): 1.80E+06 CFU/Carrier | Log Reduction compared to Control ([2]; 72 Hours, Hood (Treated)): 0.31 Log | Percent Reduction compared to Control ([2]; 72 Hours, Hood (Treated)): 51.02% | Average CFU/Carrier ([2]; 72 Hours, Room (Treated)): 3.35E+06 CFU/Carrier | Log Reduction compared to Control ([2]; 72 Hours, Room (Treated)): 0.04 Log | Percent Reduction compared to Control ([2]; 72 Hours, Room (Treated)): 8.84% | Average CFU/Carrier [2, 5]: 3.10E+06 CFU/Carrier | Log Reduction compared to Control [2, 5]: 0.24 Log | Percent Reduction compared to Control [2, 5]: 42.06% | Average CFU/Carrier [2, 6]: 3.53E+06 CFU/Carrier | Log Reduction compared to Control [2, 6]: 0.18 Log | Percent Reduction compared to Control [2, 6]: 34.11% | Mortality Rate (broilers; After DHP, grow-out facility): 2.2% | Net increase(# Chicks) (broilers; After DHP, per 4,000,000 eggs set): 62,000 | Broilers raised (broilers; After DHP, per month): 3,161,678 | reduction of mortality at the grow-out facility (broilers; chicks from DHP treated eggs): about 7.8% | Log10 reduction (E. coli K12; 1 hour): >4.78 Log10 | Log10 reduction vs. Control (E. coli K12; 1 hour): 2.82 Log10 | Log10 reduction (E. coli K12; 2 hours): >4.79 Log10 | Log10 reduction vs. Control (E. coli K12; 2 hours): 1.71 Log10 | elimination of aerosolized bacteria from the DHP treated space (E. coli K12; within one hour): essentially eliminated | number of bacterial colonies on the blood agar plates, total (bacteria): about 30 | Average CFU/Carrier ([3]; 12 Hours, Hood (Treated)): 2.18E+06 CFU/Carrier | Log Reduction compared to Control ([3]; 12 Hours, Hood (Treated)): 0.02 Log | Percent Reduction compared to Control ([3]; 12 Hours, Hood (Treated)): 4.40% | Average CFU/Carrier ([3]; 12 Hours, Room (Treated)): 3.10E+06 CFU/Carrier | Log Reduction compared to Control ([3]; 12 Hours, Room (Treated)): None | Percent Reduction compared to Control ([3]; 12 Hours, Room (Treated)): None | Average CFU/Carrier ([3]; 24 Hours, Hood (Treated)): 9.75E+05 CFU/Carrier | Log Reduction compared to Control ([3]; 24 Hours, Hood (Treated)): 0.29 Log | Percent Reduction compared to Control ([3]; 24 Hours, Hood (Treated)): 48.68% | Average CFU/Carrier ([3]; 24 Hours, Room (Treated)): 1.43E+06 CFU/Carrier | Log Reduction compared to Control ([3]; 24 Hours, Room (Treated)): 0.12 Log | Percent Reduction compared to Control ([3]; 24 Hours, Room (Treated)): 25.00% | Replicate CFU/Carrier ([3]; 24 Hours, Room (Treated)): 1.75E+06 CFU/Carrier | Average CFU/Carrier ([3]; 48 Hours, Hood (Treated)): 6.75E+05 CFU/Carrier | Log Reduction compared to Control ([3]; 48 Hours, Hood (Treated)): 0.28 Log | Percent Reduction compared to Control ([3]; 48 Hours, Hood (Treated)): 47.06% | Average CFU/Carrier ([3]; 48 Hours, Room (Treated)): 1.70E+06 CFU/Carrier | Log Reduction compared to Control ([3]; 48 Hours, Room (Treated)): None | Percent Reduction compared to Control ([3]; 48 Hours, Room (Treated)): None | Reduction (Total bacteria): over 90% | Post (Other blue green): 56 | percent hatching of first quality chicks (chicks; after installation of DHP to setter incubator environment, about 0.5 ppm in room): 83% | After Modification Cull Rate(%), Average (chicks; average of months): 1.65% | After Modification First Quality Chick (% Hatched), Average (chicks; average of months): 80.82% | additional birds available for shipping to the grow-out facility (chicks; egg room DHP): about 4,000 birds | cull rate lower than before DHP modification (chicks; egg room DHP): at least 1% | Log10 reduction ([4]; DHP (+), 1 hour): 3.54 Log10 | Log10 reduction vs. Control ([4]; DHP (+), 1 hour): 2.70 Log10 | elimination of airborne phage ([4]; within one hour): essentially eliminated | Log10 (Influenza A (H1N1); Hood Chamber, 60 minutes contact): >=2.62 Log10 | Log10 (Influenza A (H1N1); Hood Chamber, 120 minutes contact): >=1.87 Log10 | % Reduction (Influenza A (H1N1); Modular Room, 60 minutes contact): 87% | Log10 (Influenza A (H1N1); Modular Room, 60 minutes contact, DHP 0.6-1.0 ppm): 0.87 Log10 | % Reduction (Influenza A (H1N1); [7]): 76% | Log10 (Influenza A (H1N1); [7]): 0.62 Log10 | Post (Aspergillus fumigatus): 1
